Patent publication US20210113501A1, “METHOD OF ADMINISTERING BETA-HYDROXY-BETA-METHYLBUTYRATE (HMB)” (Metabolic Technologies, Inc., priority 2009, published 2021)

Test: Study 1 blood chemistry
Type: in vivo, human
Conditions: for Gamma-glutamyl: in U/L (unit assumed)
Procedure: Study 1 design. For study 1 the subjects reported to the laboratory in the morning following an overnight fast. Before ingestion of one of the supplemental treatments, a flexible sterile polyethylene catheter was inserted into a forearm vein using sterile procedures and a pre-ingestion blood sample was drawn. Subsequent blood samples were taken at 0, 2, 5, 10, 15, 25, 35, 45, 60, 90, 120 and 180 min after ingestion of the treatment. Plasma was separated and samples were stored frozen at −70° C. for analysis of HMB concentration. In addition, a portion of the pre-ingestion and 180 minute blood samples were used for measurements (LabCorp, Kansas City, Mo.) of glucose, uric acid, blood urea nitrogen (BUN), creatinine, sodium, potassium, chloride, carbon dioxide, phosphorous, protein, albumin, globulin, albumin:globulin ratio, total bilirubin, direct bilirubin, alkaline phosphatase, lactate dehydrogenase, aspartate aminotransferase (AST), alanine aminotransferase (ALT), gamma-glutamyl transpeptidase (GGT), iron binding capacity (TIBC), unsaturated iron binding capacity (UIBC), iron, iron saturation, total cholesterol, triglycerides, high density lipoprotein (HDL), low density lipoprotein (LDL), and cholesterol ratio. A complete blood count (CBC) was also performed before and after the 180 min treatment period. Subjects also completed a brief questionnaire to report any physical symptoms (such as nausea, headache, etc) they may have experienced during the experiment.
The data were analyzed using a crossover design with Proc GLM in SAS. (45) For the timed sampling of plasma HMB a repeated measures polynomial model was used. The model included subject, order, and treatment main effects and time by treatment interaction where appropriate. For other parameters Proc GLM was also used with subject, order, and treatment main effects and the p values are reported for the treatment main effect. Statistical significance was determined for p<0.05 and a trend was determined for 0.05<p<0.10.

[1] = After (180 min), listed as Free Acid Gel Swallow
[2] = Before to After, listed as Free Acid Gel Swallow
[3] = Before, listed as Free Acid Gel Swallow

**Q.** Which results are given for CC(C)(O)CC(=O)O [HMB-Acid Gel Swallow, 3-hydroxy-3-methylbutyric acid]?
**A.** Albumin (After (180 min)): 4.1 ± 0.2 g/dL; Direct Bilirubin (After (180 min)): 0.1 ± 0.01 mg/dL; A:G Ratio [1]: 1.9 ± 0.1; Alanine Aminotransferase [1]: 15.6 ± 1.3 IU/L; Alkaline Phosphatase [1]: 64.4 ± 6.7 IU/L; Aspartate Aminotransferase [1]: 23.1 ± 2.0 IU/L; Blood Urea Nitrogen [1]: 14.4 ± 1.5 mg/dL; CO2 [1]: 24.3 ± 0.5 mEq/L; Chloride [1]: 103.3 ± 0.5 mEq/L; Cholesterol Ratio [1]: 3.3 ± 0.3; Creatinine [1]: 0.9 ± 0.1 mg/dL; Globulin [1]: 2.2 ± 0.1 g/dL; Glucose [1]: 73.3 ± 4.1 mg/dL; HDL [1]: 48.5 ± 3.7 mg/dL; Iron [1]: 96.3 ± 17.3 µg/dL; Iron Binding Capacity [1]: 333.4 ± 35.2 µg/dL; Iron Saturation [1]: 33.5 ± 8.4%; LDL [1]: 85.6 ± 4.1 mg/dL; Lactate Dehydrogenase [1]: 166.3 ± 11.1 IU/L; Phosphorus [1]: 3.4 ± 0.1 mg/dL; Potassium [1]: 4.6 ± 0.3 mEq/L; Protein [1]: 6.3 ± 0.2 g/dL; Sodium [1]: 138.3 ± 0.9 mEq/L; Total Bilirubin [1]: 0.5 ± 0.07 mg/dL; Total Cholesterol [1]: 153.3 ± 5.6 mg/dL; Triglycerides [1]: 87.5 ± 14.8 mg/dL; UIBC [1]: 237.1 ± 49.2 µg/dL; Uric Acid [1]: 4.9 ± 0.4 mg/dL; Gamma-glutamyl [1]: 13.5 ± 1.1; A:G Ratio (Before): 1.9 ± 0.1; Creatinine (Before): 1.0 ± 0.1 mg/dL; Direct Bilirubin (Before): 0.1 ± 0.01 mg/dL; Total Bilirubin (Before): 0.4 ± 0.05 mg/dL; A:G Ratio % Change [2]: 0.0%; Alanine Aminotransferase % Change [2]: −1.6%; Albumin % Change [2]: 1.9%; Alkaline Phosphatase % Change [2]: 0.8%; Aspartate Aminotransferase % Change [2]: −3.6%; Blood Urea Nitrogen % Change [2]: −6.5%; CO2 % Change [2]: 8.1%; Chloride % Change [2]: −0.4%; Cholesterol Ratio % Change [2]: −3.3%; Creatinine % Change [2]: −4.7%; Direct Bilirubin % Change [2]: 7.9%; Gamma-glutamyl % Change [2]: −6.1%; Globulin % Change [2]: 0.6%; Glucose % Change [2]: 3.9%; HDL % Change [2]: 3.5%; Iron % Change [2]: 12.6%; Iron Binding Capacity % Change [2]: 1.4%; Iron Saturation % Change [2]: 9.4%; LDL % Change [2]: −3.1%; Lactate Dehydrogenase % Change [2]: −1.5%; Phosphorus % Change [2]: −15.6%; Potassium % Change [2]: 11.4%; Protein % Change [2]: 1.4%; Sodium % Change [2]: −0.2%; Total Bilirubin % Change [2]: 23.3%; Total Cholesterol % Change [2]: −0.2%; Triglycerides % Change [2]: −4.1%; UIBC % Change [2]: −2.5%; Uric Acid % Change [2]: 0.8%; Alanine Aminotransferase [3]: 15.9 ± 1.5 IU/L; Albumin [3]: 4.0 ± 0.2 g/dL; Alkaline Phosphatase [3]: 63.9 ± 5.8 IU/L; Aspartate Aminotransferase [3]: 24.0 ± 2.2 IU/L; Blood Urea Nitrogen [3]: 15.4 ± 1.6 mg/dL; CO2 [3]: 22.4 ± 0.7 mEq/L; Chloride [3]: 103.6 ± 0.8 mEq/L; Cholesterol Ratio [3]: 3.4 ± 0.2; Globulin [3]: 2.2 ± 0.1 g/dL; Glucose [3]: 70.5 ± 1.7 mg/dL; HDL [3]: 46.9 ± 3.4 mg/dL; Iron [3]: 85.5 ± 19.2 µg/dL; Iron Binding Capacity [3]: 328.6 ± 31.0 µg/dL; Iron Saturation [3]: 30.6 ± 9.4%; LDL [3]: 88.4 ± 3.0 mg/dL; Lactate Dehydrogenase [3]: 168.8 ± 10.4 IU/L; Phosphorus [3]: 4.0 ± 0.1 mg/dL; Potassium [3]: 4.2 ± 0.1 mEq/L; Protein [3]: 6.2 ± 0.2 g/dL; Sodium [3]: 138.5 ± 1.1 mEq/L; Total Cholesterol [3]: 153.5 ± 5.3 mg/dL; Triglycerides [3]: 91.3 ± 17.0 mg/dL; UIBC [3]: 243.1 ± 47.4 µg/dL; Uric Acid [3]: 4.9 ± 0.4 mg/dL; Gamma-glutamyl [3]: 14.4 ± 1.6
